In paper PMC6207370 (Xenobiotica; the fate of foreign compounds in biological …, 2017):
“And” between values parts separate entries of the source, which are not always exact repeats. Identical values can stand only once. Like-named read-outs stand apart in the source and are kept apart here. Marks after values point to notes of the source that are not given here.

Legend:
Allometric scaling = experiment: Allometric scaling; design: species or system human; settings: for SSS Human Predicted S9 CLint: exponent 0.75
[1] = Incubations with human hepatic S9; settings: for CLint scaled at 1 μM: both; for Fm,AO Method A (fraction metabolized by AO) / Fm,AO Method B (fraction metabolized by AO) / Fm,AO (fraction metabolized by AO): human hepatic S9; for Fm,AO Method A (fraction metabolized by AO): method A (eq. 4); for Fm,AO Method B (fraction metabolized by AO): method B (eq. 5), values > 1 assumed equal to 1; for Fm,AO (fraction metabolized by AO): methods A and B taken together (data from Table 3)
[2] = rat, cited from earlier work
[3] = Incubations with guinea pig hepatic S9; settings: for Fm,AO Method A (fraction metabolized by AO) / Fm,AO Method B (fraction metabolized by AO): guinea pig hepatic S9; for Fm,AO Method A (fraction metabolized by AO): method A (eq. 4); for Fm,AO Method B (fraction metabolized by AO): method B (eq. 5), values > 1 assumed equal to 1
[4] = cynomolgus monkey, cited from earlier work
[5] = Incubations with rhesus monkey hepatic S9; settings: for Fm,AO Method A (fraction metabolized by AO) / Fm,AO Method B (fraction metabolized by AO): rhesus monkey hepatic S9; for Fm,AO Method A (fraction metabolized by AO): method A (eq. 4); for Fm,AO Method B (fraction metabolized by AO): method B (eq. 5), values > 1 assumed equal to 1
[6] = Incubations with mouse hepatic S9; settings: for CLint scaled at 1 μM: male, CD-1, mouse, Table 1, triplicate, 2–3 experiments
[7] = Incubations with cynomolgus monkey hepatic S9; settings: for Fm,AO Method A (fraction metabolized by AO) / Fm,AO Method B (fraction metabolized by AO) / Fm,AO (fraction metabolized by AO): cynomolgus monkey hepatic S9; for Fm,AO Method A (fraction metabolized by AO): method A (eq. 4); for Fm,AO Method B (fraction metabolized by AO): method B (eq. 5), values > 1 assumed equal to 1; for Fm,AO (fraction metabolized by AO): methods A and B taken together (data from Table 3)
[8] = Incubations with rat hepatic S9; settings: for CLint scaled at 1 μM: male, Sprague-Dawley, Table 1, triplicate, 2–3 experiments; for Fm,AO Method A (fraction metabolized by AO) / Fm,AO Method B (fraction metabolized by AO) / Fm,AO (fraction metabolized by AO): rat hepatic S9; for Fm,AO Method A (fraction metabolized by AO): method A (eq. 4); for Fm,AO Method B (fraction metabolized by AO): method B (eq. 5), values > 1 assumed equal to 1; for Fm,AO (fraction metabolized by AO): methods A and B taken together (data from Table 3); for CLHEP (hepatic clearance): well-stirred model from S9 CLint (+NADPH), uncorrected for fraction unbound
[9] = assay type: in vitro ADME
[10] = Incubations with minipig hepatic S9; settings: for CLint scaled at 1 μM: male, Gottingen, Table 1, triplicate, 2–3 experiments; for Fm,AO Method A (fraction metabolized by AO) / Fm,AO Method B (fraction metabolized by AO): minipig hepatic S9; for Fm,AO Method A (fraction metabolized by AO): method A (eq. 4); for Fm,AO Method B (fraction metabolized by AO): method B (eq. 5), values > 1 assumed equal to 1
[11] = mouse, cited from earlier work
[12] = human; ref Hutzler JM, Cerny MA, Yang YS et al. (2014); cited from earlier work
[13] = single-species scaling from cynomolgus monkey S9 CLint
[14] = single-species scaling from mouse S9 CLint
[15] = single-species scaling from rat S9 CLint
[16] = ref Dalvie D, Zhang C, Chen W, et al. (2010)
[17] = single-species scaling from literature cynomolgus monkey CLp
[18] = single-species scaling from literature mouse CLp
[19] = single-species scaling from literature rat CLp
[20] = ref Hutzler JM, Cerny MA, Yang YS et al. (2014)

N=C(N)NC(=O)c1cnn(-c2cccc3ncccc23)c1C1CC1 [Zoniporide]
SSS Human Predicted S9 CLint (Allometric scaling; [13]): 30.7 mL/min/kg | SSS Human Predicted S9 CLint (Allometric scaling; [14]): 43.1 mL/min/kg | SSS Human Predicted S9 CLint (Allometric scaling; [15]): 114 mL/min/kg | CLint scaled at 1 μM ([1]; human, hepatic S9, pH 7.4, CLint (intrinsic clearance) in hepatic S9, human hepatic S9, in the presence of NADPH, Table 1, triplicate, 2–3 experiments): 17.9 ± 1.77 mL/min/kg | CLint scaled at 1 μM ([1]; human, hepatic S9, pH 7.4, CLint −NADPH, human hepatic S9 without NADPH): 17.1 ± 1.53 mL/min/kg | Fm,AO Method A (fraction metabolized by AO) [1]: 0.77 | Fm,AO Method B (fraction metabolized by AO) [1]: 0.72 | Fm,AO (fraction metabolized by AO) [1]: 0.72–0.77 | CLp (plasma clearance) [2, 16]: 237^§ mL/min/kg | Fm,AO Method A (fraction metabolized by AO) [3]: 0.84 | Fm,AO Method B (fraction metabolized by AO) [3]: 0.97 | CLp (plasma clearance) [4, 16]: 31^§ mL/min/kg | Fm,AO Method A (fraction metabolized by AO) [5]: 0.77 | Fm,AO Method B (fraction metabolized by AO) [5]: 1^# | SSS Human Predicted CLp (Single-species scaling; [17]): 15.2 mL/min/kg | SSS Human Predicted CLp (Single-species scaling; [18]): 39.2 mL/min/kg | SSS Human Predicted CLp (Single-species scaling; [19]): 62.7 mL/min/kg | CLint scaled at 1 μM ([6]; hepatic S9, pH 7.4, CLint (intrinsic clearance) in hepatic S9, mouse hepatic S9, in the presence of NADPH): 332 ± 11.3 mL/min/kg | Fm,AO Method A (fraction metabolized by AO) ([6]; mouse hepatic S9, method A (eq. 4)): 0.90 | Fm,AO Method B (fraction metabolized by AO) ([6]; mouse hepatic S9, method B (eq. 5), values > 1 assumed equal to 1): 0.90 | Fm,AO (fraction metabolized by AO) ([6]; mouse hepatic S9, methods A and B taken together (data from Table 3)): 0.90 | Fm,AO Method A (fraction metabolized by AO) [7]: 0.90 | Fm,AO Method B (fraction metabolized by AO) [7]: 1 | Fm,AO (fraction metabolized by AO) [7]: ≥ 0.90 | CLint scaled at 1 μM ([8]; rat, hepatic S9, pH 7.4, CLint (intrinsic clearance) in hepatic S9, rat hepatic S9, in the presence of NADPH): 466 ± 27 mL/min/kg | Fm,AO Method A (fraction metabolized by AO) [8]: 0.74 | Fm,AO Method B (fraction metabolized by AO) [8]: 0.72 | Fm,AO (fraction metabolized by AO) [8]: 0.72–0.74 | CLHEP (hepatic clearance) ([8]; rat): 60.8 ± 0.485 mL/min/kg | Fm,AO, across species ([9]; all species): > 0.70 | CLint scaled at 1 μM ([10]; minipig, hepatic S9, pH 7.4, CLint (intrinsic clearance) in hepatic S9, minipig hepatic S9, in the presence of NADPH): 23.4 ± 2.07 mL/min/kg | Fm,AO Method A (fraction metabolized by AO) [10]: 0.83 | Fm,AO Method B (fraction metabolized by AO) [10]: 0.97 | CLp (plasma clearance) [11, 16]: 298^§ mL/min/kg

CN1CCC(Nc2ncc3ncnc(Nc4ccc(F)c(Cl)c4)c3n2)CC1 [BIBX1382]
fold-error of human S9 CLint predicted by SSS (Allometric scaling; SSS from guinea pig): outside of 3-fold-error | SSS Human Predicted S9 CLint (Allometric scaling; [13]): 88.7 mL/min/kg | SSS Human Predicted S9 CLint (Allometric scaling; [14]): 4.3 mL/min/kg | SSS Human Predicted S9 CLint (Allometric scaling; [15]): 7.5 mL/min/kg | CLint scaled at 1 μM ([1]; human, s9, pH 7.4, CLint (intrinsic clearance) in hepatic S9, human hepatic S9, in the presence of NADPH, Table 1, triplicate, 2–3 experiments): 80.2 ± 9.61 mL/min/kg | CLint scaled at 1 μM ([1]; human, s9, pH 7.4, CLint +NADPH +Hyd, human hepatic S9 containing NADPH and hydralazine (50 μM)): 5.83 ± 1.22 mL/min/kg | CLint scaled at 1 μM ([1]; human, s9, pH 7.4, CLint −NADPH +Hyd, human hepatic S9 containing hydralazine (50 μM) without NADPH): 3.93 ± 1.75 mL/min/kg | CLint scaled at 1 μM ([1]; human, s9, pH 7.4, CLint −NADPH, human hepatic S9 without NADPH): 69.6 ± 2.1 mL/min/kg | Fm,AO Method A (fraction metabolized by AO) [1]: 0.92 | Fm,AO Method B (fraction metabolized by AO) [1]: 0.92 | Fm,AO (fraction metabolized by AO) [1]: 0.92 | E (estimated hepatic extraction ratio) ([1]; human, E = CLHEP/QH from hepatic S9 (+NADPH)): 0.79 | CLp (plasma clearance) [2, 20]: 55^¶ mL/min/kg | Fm,AO Method A (fraction metabolized by AO) [3]: 0.65 | Fm,AO Method B (fraction metabolized by AO) [3]: 0.73 | E (estimated hepatic extraction ratio) ([3]; guinea pig, E = CLHEP/QH from hepatic S9 (+NADPH)): 0.54 | CLp (plasma clearance) [4, 20]: 118^¶ mL/min/kg | Fm,AO Method A (fraction metabolized by AO) [5]: 0.94 | Fm,AO Method B (fraction metabolized by AO) [5]: 0.86 | E (estimated hepatic extraction ratio) ([5]; rhesus monkey, E = CLHEP/QH from hepatic S9 (+NADPH)): 0.72 | SSS Human Predicted CLp (Single-species scaling; [17]): 56 mL/min/kg and 56.0 mL/min/kg | SSS Human Predicted CLp (Single-species scaling; [18]): 7.2 mL/min/kg | SSS Human Predicted CLp (Single-species scaling; [19]): 13.4 mL/min/kg | CLint scaled at 1 μM ([6]; s9, pH 7.4, CLint (intrinsic clearance) in hepatic S9, mouse hepatic S9, in the presence of NADPH): 33.2 ± 7.1 mL/min/kg | E (estimated hepatic extraction ratio) ([6]; mouse, E = CLHEP/QH from hepatic S9 (+NADPH)): 0.27 | Fm,AO Method A (fraction metabolized by AO) [7]: 1 | Fm,AO Method B (fraction metabolized by AO) [7]: 1^# | Fm,AO (fraction metabolized by AO) [7]: 1.0 | E (estimated hepatic extraction ratio) ([7]; cynomolgus monkey, E = CLHEP/QH from hepatic S9 (+NADPH)): 0.80 | CLint scaled at 1 μM ([8]; rat, s9, pH 7.4, CLint (intrinsic clearance) in hepatic S9, rat hepatic S9, in the presence of NADPH): 30.7 ± 3.56 mL/min/kg | Fm,AO Method A (fraction metabolized by AO) [8]: 0.09 | Fm,AO Method B (fraction metabolized by AO) [8]: 0.69 | Fm,AO (fraction metabolized by AO) [8]: ≤ 0.69 | CLint +NADPH +Hyd ([8]; rat hepatic S9 containing NADPH and hydralazine (50 μM)): 25.1 ± 6.29 mL/min/kg | CLint +NADPH ([8]; rat hepatic S9 containing NADPH, Table 3 data set, triplicate): 27.6 ± 0.995 mL/min/kg | E (estimated hepatic extraction ratio) ([8]; rat, E = CLHEP/QH from hepatic S9 (+NADPH)): 0.30 | CLHEP (hepatic clearance) ([8]; rat): 21.3 ± 1.73 mL/min/kg | E (estimated hepatic extraction ratio), across species ([9]; human, monkey, and minipig S9): 0.72 – 0.83 | CLint scaled at 1 μM ([10]; minipig, s9, pH 7.4, CLint (intrinsic clearance) in hepatic S9, minipig hepatic S9, in the presence of NADPH): 134 ± 5.69 mL/min/kg | Fm,AO Method A (fraction metabolized by AO) [10]: 0.85 | Fm,AO Method B (fraction metabolized by AO) [10]: 0.96 | E (estimated hepatic extraction ratio) ([10]; minipig, E = CLHEP/QH from hepatic S9 (+NADPH)): 0.83 | CLp (plasma clearance) [12]: 25–55^¶ mL/min/kg | CLp (plasma clearance) [11, 20]: 55^¶ mL/min/kg
